One test concerns the target T1, human FSH receptor (Homo sapiens, UniProt P23945).
T1 construct: expressed in transfected cells; host or cells: CHO cells transfected with human FSH receptor and CRE-luciferase reporter
T1 sequence (P23945 18-695): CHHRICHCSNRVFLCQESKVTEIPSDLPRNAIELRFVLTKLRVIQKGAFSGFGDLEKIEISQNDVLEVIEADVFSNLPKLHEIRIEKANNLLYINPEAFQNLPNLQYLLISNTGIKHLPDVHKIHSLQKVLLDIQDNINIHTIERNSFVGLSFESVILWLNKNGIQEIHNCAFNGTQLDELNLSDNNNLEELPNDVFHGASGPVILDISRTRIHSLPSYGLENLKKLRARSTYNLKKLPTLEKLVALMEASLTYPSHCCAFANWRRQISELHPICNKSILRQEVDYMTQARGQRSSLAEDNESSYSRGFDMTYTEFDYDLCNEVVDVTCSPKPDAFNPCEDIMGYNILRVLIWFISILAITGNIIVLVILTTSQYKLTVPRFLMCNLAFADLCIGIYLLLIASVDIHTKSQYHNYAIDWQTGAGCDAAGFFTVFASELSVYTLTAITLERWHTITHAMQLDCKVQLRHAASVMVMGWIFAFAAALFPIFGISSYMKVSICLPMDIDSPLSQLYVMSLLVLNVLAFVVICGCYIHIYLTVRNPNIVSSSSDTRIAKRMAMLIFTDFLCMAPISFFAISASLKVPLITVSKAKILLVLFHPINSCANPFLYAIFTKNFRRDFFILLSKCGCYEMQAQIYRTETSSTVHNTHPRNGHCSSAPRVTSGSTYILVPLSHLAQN
Nature of the test: CHO-FSH in vitro bioactivity (CRE-luciferase reporter). It is filed as cell-based. The note with it: CHO cells transfected with human FSH receptor and luciferase reporter gene. The procedure:
(§1) It has been shown that compounds of the above mentioned formula I show agonistic LH and FSH activity. […] Typically the FSH activity ranges from an activity of about 0.1% of the LH agonist stimulation to about 10% of the LH agonist stimulation.
(§2) LH agonistic activity of compounds were tested in Chinese Hamster Ovary (CHO) cells stably transfected with the human LH receptor and cotransfected with a cAMP responsive element (CRE)/promotor directing the expression of a firefly luciferase reporter gene. Binding of ligand to the Gs-coupled LH receptor will result in an increase of cAMP, which in turn will induce an increased transactivation of the luciferase reporter construct. The luciferase signal was quantified using a luminescence counter. For test compounds, EC50 values (concentration of test compound causing half-maximal (50%) stimulation) were calculated. For that purpose the software program GraphPad PRISM, version 3.0 (GraphPad software Inc., San Diego) was used.
In a similar way FSH agonistic activity of compounds were tested in CHO cells transfected with the luciferase reporter gene and the human FSH receptor.

Another test addresses T2, human LH receptor (Homo sapiens, UniProt P22888).
T2 construct: expressed in transfected cells; host or cells: Chinese Hamster Ovary (CHO) cells, stably transfected; cotransfected with CRE-luciferase reporter
In words: CHO-LH in vitro bioactivity (CRE-luciferase reporter). It is filed as cell-based. The note with it: CHO cells stably transfected with human LH receptor. As for the experimental part: as §1, §2
On the technique in general: A reporter such as luciferase makes a cellular process visible.

The next test concerns immature female mice. In words: In vivo bioactivity: ovulation induction in immature mice. The note with it: immature female mice primed with urinary FSH (Humegon 12.5 IU/animal); 50 mg/kg about 48 hours later; killed 24 hours after treatment. The procedure: To measure LH in vivo activity of compounds, ovulation induction in immature mice can be studied. In this assay immature female mice are primed with urinary FSH and approximately 48 hours later treated with a LH agonistic compound. The animals are killed after LH agonist treatment and the number of ova in the oviduct is microscopically assessed.
To measure in vivo activity of LH/FSH receptor agonistic compounds ovulation induction in immature mice were studied. In this assay immature female mice were primed with urinary FSH (Humegon 12.5 IU/animal). Approximately 48 hours later the animals were treated with a LH/FSH agonistic compound, the preparation of which is described in examples 1, 4, 9 and 17, at a dose-level of 50 mg/kg. The animals were killed 24 hours after LH/FSH agonist treatment and the number of ova in the oviduct was microscopically assessed. On average 10-15 animals were tested. The mean number of ova amounted 8 with the exception of the compound of example 17 (which was 0.4).

T2 sequence (P22888 27-699): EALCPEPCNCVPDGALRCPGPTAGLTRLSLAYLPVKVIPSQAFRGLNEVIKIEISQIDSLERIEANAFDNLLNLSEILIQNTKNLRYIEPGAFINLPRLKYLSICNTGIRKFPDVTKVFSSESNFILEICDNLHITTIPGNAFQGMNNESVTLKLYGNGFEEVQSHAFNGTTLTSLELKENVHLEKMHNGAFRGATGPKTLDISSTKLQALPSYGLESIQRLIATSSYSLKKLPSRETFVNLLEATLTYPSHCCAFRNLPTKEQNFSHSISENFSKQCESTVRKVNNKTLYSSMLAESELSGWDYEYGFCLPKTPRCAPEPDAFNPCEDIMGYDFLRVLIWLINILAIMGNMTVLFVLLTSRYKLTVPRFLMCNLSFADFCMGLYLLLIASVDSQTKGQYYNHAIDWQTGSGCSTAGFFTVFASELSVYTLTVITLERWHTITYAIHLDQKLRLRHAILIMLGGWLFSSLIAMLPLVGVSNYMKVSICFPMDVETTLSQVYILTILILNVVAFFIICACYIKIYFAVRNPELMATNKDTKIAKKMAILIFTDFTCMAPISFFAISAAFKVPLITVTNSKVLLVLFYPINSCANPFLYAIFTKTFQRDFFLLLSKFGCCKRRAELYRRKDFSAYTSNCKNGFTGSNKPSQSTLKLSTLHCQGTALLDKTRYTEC

With `CSc1nc(-c2cccc(NC(=O)CN(C)CCO)c2)c2c(N)c(C(=O)NC(C)(C)C)sc2n1` [Example 1, tert-Butyl 5-amino-2-methylthio-4-(3-((N-methyl-N-(2-hydroxyethyl)-glycinyl)-amino)-phenyl)-thieno[2,3-d]pyrimidine-6-carboxamide], the EC50 at human FSH receptor amounted to 56.9 nM; at human LH receptor, 2.73 nM. Also, the “mean number of ova in the oviduct” value in the test with immature female mice is listed as 8.
For `CCN(CCOC)CC(=O)Nc1cccc(-c2nc(SC)nc3sc(C(=O)NC(C)(C)C)c(N)c23)c1` [Example 4, tert-Butyl 5-amino-2-methylthio-4-(3-((N-ethyl-N-(2-methoxyethyl)-glycinyl)-amino)-phenyl)-thieno[2,3-d]pyrimidine-6-carboxamide], in that order: 101 nM, 7 nM and 8.
As for `CCN(CCO)CC(=O)Nc1cccc(-c2nc(-c3ccccc3)nc3sc(C(=O)NC(C)(C)C)c(N)c23)c1` [Example 9, tert-Butyl 5-amino-2-phenyl-4-(3-((N-ethyl-N-(2-hydroxyethyl)-glycinyl)-amino)-phenyl)-thieno[2,3-d]pyrimidine-6-carboxamide], the EC50 worked out at 606 nM at human FSH receptor and 4.82 nM on human LH receptor. In addition, in the test with immature female mice, the “mean number of ova in the oviduct” value is 8.
In the case of `CCNc1nc(-c2cccc(NC(=O)CN(CC)CCOC)c2)c2c(N)c(C(=O)NC(C)(C)C)sc2n1` [Example 17, tert-Butyl 5-amino-2-ethylamino-4-(3-((N-ethyl-N-(2-methoxyethyl)-glycinyl)-amino)-phenyl)-thieno[2,3-d]pyrimidine-6-carboxamide], the figures for the EC50 at human FSH receptor and at human LH receptor were 1250 nM and 10.4 nM, respectively. Moreover, in the test with immature female mice, the “mean number of ova in the oviduct” value amounted to 0.4.

The EC50 is the concentration giving half of the maximal effect. A low value points to a more potent agent.
